“And” between values parts separate entries of the source, which are not always exact repeats. Equal values may be shown once. Read-outs that look alike come from different tables or passages of the source.

Series [1] addresses Sigma 1 (Homo sapiens (Human), UniProt Q99720). Description: Sigma 1 binding affinity (Table 5).
The target in series [2] is T1, serotonin transporter (SERT) (Rattus norvegicus (Rat), UniProt P31652). Conditions: for Ki: rat brain membranes.
Protocol: (§3) Brains from male Sprague-Dawley rats weighing 200-225 g (Taconic Labs, Germantown, N.Y.) were removed, midbrain dissected and rapidly frozen. […] Nonspecific binding was determined using 10 mM fluoxetine. […] The filters were washed twice with 3 mL cold buffer and transferred to scintillation vials. Beckman Ready Value (3.0 mL) was added and the vials were counted the next day using a Beckman 6000 liquid scintillation counter (Beckman Coulter Instruments, Fullerton, Calif.). […] Data were analyzed with GraphPad Prism software (San Diego, Calif.).
For series [3], the target named is norepinephrine transporter (NET) (Rattus norvegicus, UniProt Q63380). The settings on record: rat brain membranes. How it is done: Binding affinities of all compounds were evaluated at the DAT, SERT, and NET in rat brain membranes using previously described methods:
Norepinephrine Transporter Binding Assay. Brains from male Sprague-Dawley rats weighing 200-225 g (Taconic Labs, Germantown, N.Y.) were removed, frontal cortex dissected and rapidly frozen. Membranes were prepared by homogenizing tissues in 20 volumes (w/v) of 50 mM Tris containing 120 mM NaCl and 5 mM KCl, (pH 7.4 at 25° C.), using a Brinkman Polytron and centrifuged at 50,000×g for 10 min at 4° C. The resulting pellet was resuspended in buffer, recentrifuged and resuspended in buffer to a concentration of 80 mg/mL. Ligand binding experiments were conducted in assay tubes containing 0.5 mL buffer for 60 min at 0-4° C. […] Nonspecific binding was determined using 1 mM desipramine. Incubations were terminated by rapid filtration through Whatman GF/B filters, presoaked in 0.05% polyethylenimine, using a Brandel R48 filtering manifold (Brandel Instruments Gaithersburg, Md.). The filters were washed twice with 3 mL cold buffer and transferred to scintillation vials. Beckman Ready Value (3.0 mL) was added and the vials were counted using a Beckman 6000 liquid scintillation counter (Beckman Coulter Instruments, Fullerton, Calif.). […] All compounds were tested as racemic mixtures.

Series [4] concerns the target dopamine transporter (DAT) (Rattus norvegicus (Rat), UniProt P23977). Description: Dopamine Transporter Binding Assay ([3H]WIN 35428, rat striatal membranes).
The target in series [5] is Sigma 2 (Homo sapiens (Human), UniProt Q5BJF2). Description: Sigma 2 binding affinity (Table 5).
Sigma 2, sequence (Q5BJF2 whole entry): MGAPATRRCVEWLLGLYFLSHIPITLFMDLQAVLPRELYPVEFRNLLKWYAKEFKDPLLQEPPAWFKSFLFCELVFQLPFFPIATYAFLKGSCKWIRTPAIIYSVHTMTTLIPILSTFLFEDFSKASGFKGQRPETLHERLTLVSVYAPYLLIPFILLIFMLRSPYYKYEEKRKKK
Series [6] is described as follows: Phase II (glucuronidation, UDPGA) metabolic stability in mouse liver microsomes. It is filed as in vitro ADME. How it is done:
(§1) Phase I and phase II metabolic stability assay for was conducted in mouse liver microsomes. For phase I metabolism, the reaction was carried out with 100 mM potassium phosphate buffer, pH 7.4, in the presence of NADPH regenerating system (1.3 mM NADPH, 3.3 mM glucose 6-phosphate, 3.3 mM MgCl2, 0.4 U/mL glucose-6-phosphate dehydrogenase, 50 μM sodium citrate). Reactions in duplicate were initiated by addition of the liver microsomes to the incubation mixture (compound final concentration was 10 μM; 0.5 mg/mL microsomes). For phase II glucuronidation reaction compound was added to TRIS-HCl buffer (50 mM, pH 7.5) with microsomes (0.5 mg/mL), along with MgCl2 (8 mM), and alamethicin (25 μg/mL) and pre-incubated at 37° C. The reaction was initiated (in duplicate) with UDPGA at a final concentration of 2 mM. Negative controls in the absence NADPH and UDPGA were carried for both phase I and phase II metabolism respectively, to determine the specific cofactor free degradation. […] At predetermined times (0, 15, 30 and 60 min) aliquots of the mixture were removed and the reaction quenched by addition of two times the volume of ice cold acetonitrile spiked with the internal standard. Compound disappearance was monitored over time using a liquid chromatography and tandem mass spectrometry (LC/MS/MS) method.
(§2) Compounds were separated on an Agilent 1290 UPLC system with a c18 column using a gradient run of 55:45-5:95 water:acetonitrile over 3.2 minutes and detected on an Agilent 6520 QTOF mass spectrometer.

Series [7] concerns the target T1, serotonin transporter (SERT). Description: biochemical.
Protocol: as §3
Series [8] can be described thus: Metabolic stability in mouse plasma. The format is in vitro ADME. Conditions: mouse plasma, 10 μM, 0 min. On the procedure: The metabolic stability was evaluated using mouse plasma and mouse liver microsomes.
A short description of series [9]: Phase I metabolic stability in mouse liver microsomes (NADPH). Conditions: 10 μM. It is filed as in vitro ADME. On the procedure:
as §1, §2

The mark [10] stands for this setting: read-out: SERT Ki ± SEM, Table 5 piperazinyl derivatives.
The mark [11] stands for this setting: read-out: NET Ki ± SEM, Table 5 piperazinyl derivatives.
[12] abbreviates: rat brain membranes, Table 5 piperazinyl derivatives, read-out: DAT Ki ± SEM.
Where [13] appears, read: read-out: Ki (nM) ± S.E.M. NET, Table 1 thioacetamides and sulfinylacetamides.
[14] abbreviates: rat brain membranes, Table 1 thioacetamides and sulfinylacetamides, read-out: Ki (nM) ± S.E.M. DAT.
[15] abbreviates: read-out: Ki (nM) ± S.E.M. SERT, Table 2 thioethanamines and sulfinylethanamines.

dopamine transporter (DAT), sequence (P23977 whole entry): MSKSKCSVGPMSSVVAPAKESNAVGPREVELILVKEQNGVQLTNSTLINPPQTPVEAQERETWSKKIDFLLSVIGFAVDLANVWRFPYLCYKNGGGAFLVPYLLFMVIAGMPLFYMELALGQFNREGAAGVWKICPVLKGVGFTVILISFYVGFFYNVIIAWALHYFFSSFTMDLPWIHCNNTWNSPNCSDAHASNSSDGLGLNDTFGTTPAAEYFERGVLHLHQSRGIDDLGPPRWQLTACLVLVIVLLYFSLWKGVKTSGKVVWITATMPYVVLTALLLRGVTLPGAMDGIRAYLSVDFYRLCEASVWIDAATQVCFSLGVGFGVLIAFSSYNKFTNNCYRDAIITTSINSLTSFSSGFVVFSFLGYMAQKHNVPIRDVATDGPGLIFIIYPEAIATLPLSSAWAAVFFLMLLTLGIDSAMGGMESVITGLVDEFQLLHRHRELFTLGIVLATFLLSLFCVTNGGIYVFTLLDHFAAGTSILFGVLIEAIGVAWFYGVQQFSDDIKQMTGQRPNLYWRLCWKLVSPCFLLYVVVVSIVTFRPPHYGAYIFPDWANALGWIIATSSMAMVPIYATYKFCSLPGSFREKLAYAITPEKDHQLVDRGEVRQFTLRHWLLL
norepinephrine transporter (NET), sequence (Q63380 1-617): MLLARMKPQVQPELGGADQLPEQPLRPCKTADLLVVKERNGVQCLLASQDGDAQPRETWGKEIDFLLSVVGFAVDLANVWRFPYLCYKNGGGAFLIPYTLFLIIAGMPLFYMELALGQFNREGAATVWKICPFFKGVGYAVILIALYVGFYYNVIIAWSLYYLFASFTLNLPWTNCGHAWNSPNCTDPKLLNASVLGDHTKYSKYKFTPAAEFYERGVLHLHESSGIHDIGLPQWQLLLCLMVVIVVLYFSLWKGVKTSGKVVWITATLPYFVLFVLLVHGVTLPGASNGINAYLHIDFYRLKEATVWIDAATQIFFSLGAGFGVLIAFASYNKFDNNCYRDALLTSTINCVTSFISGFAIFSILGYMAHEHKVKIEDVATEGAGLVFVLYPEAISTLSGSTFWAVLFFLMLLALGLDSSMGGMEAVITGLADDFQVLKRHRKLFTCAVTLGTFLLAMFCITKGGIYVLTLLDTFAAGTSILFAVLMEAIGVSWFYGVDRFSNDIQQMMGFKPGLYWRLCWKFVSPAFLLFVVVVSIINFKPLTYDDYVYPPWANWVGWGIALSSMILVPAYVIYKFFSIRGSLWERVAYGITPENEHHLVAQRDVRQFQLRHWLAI
T1 sequence (P31652 whole entry): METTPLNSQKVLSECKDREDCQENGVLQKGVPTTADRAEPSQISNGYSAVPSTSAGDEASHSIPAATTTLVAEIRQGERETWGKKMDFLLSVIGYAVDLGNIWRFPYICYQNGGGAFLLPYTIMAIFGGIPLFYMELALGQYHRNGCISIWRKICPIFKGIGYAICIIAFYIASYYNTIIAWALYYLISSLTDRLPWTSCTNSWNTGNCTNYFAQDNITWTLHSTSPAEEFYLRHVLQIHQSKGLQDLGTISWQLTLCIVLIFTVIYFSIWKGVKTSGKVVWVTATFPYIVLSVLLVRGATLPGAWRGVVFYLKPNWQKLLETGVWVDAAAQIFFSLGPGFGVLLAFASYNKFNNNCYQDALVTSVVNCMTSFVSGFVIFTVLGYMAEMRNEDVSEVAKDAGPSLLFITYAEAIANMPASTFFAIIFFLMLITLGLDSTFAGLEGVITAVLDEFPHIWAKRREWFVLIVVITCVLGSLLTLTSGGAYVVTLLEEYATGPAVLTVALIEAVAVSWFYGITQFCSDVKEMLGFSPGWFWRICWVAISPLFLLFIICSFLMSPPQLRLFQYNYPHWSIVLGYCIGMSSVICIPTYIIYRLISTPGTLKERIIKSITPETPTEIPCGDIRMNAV
Sigma 1, sequence (Q99720 whole entry): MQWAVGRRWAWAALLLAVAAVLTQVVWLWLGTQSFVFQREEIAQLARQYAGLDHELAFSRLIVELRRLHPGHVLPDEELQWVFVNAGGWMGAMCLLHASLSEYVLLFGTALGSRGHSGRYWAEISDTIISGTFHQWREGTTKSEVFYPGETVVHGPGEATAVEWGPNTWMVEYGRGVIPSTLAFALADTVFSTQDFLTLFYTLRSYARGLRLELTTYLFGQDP

As to `[O-][S+](CCN1CCN(CC(O)Cc2ccccc2)CC1)C(c1ccccc1)c1ccccc1` (racemic) [Compound 10g, 1-(4-(2-(Benzhydrylsulfinyl)ethyl)piperazin-1-yl)-3-phenylpropan-2-ol], the Ki came to 983 ± 103 nM in [1] (Table 5 piperazinyl derivatives, read-out: Sigma 1 Ki ± SEM); 21700 ± 2020 nM in series [2] (setting [10]); 25300 ± 2040 nM in series [3] (setting [11]); 3.43 ± 0.5 nM in series [4] (setting [12]); 316 ± 25.2 nM in series [5] (Table 5 piperazinyl derivatives, read-out: Sigma 2 Ki ± SEM).
`Cc1cc(=O)oc2cc(O)ccc12` [4 Methyl Umbelliferone, 4-methylumbelliferone, reference compound]: the “Metabolic stability, Phase II (% remaining)” value in series [6] (0 min) is 100%; in series [6] (60 min) it was 3.10%.
Take `O=C(CSC(c1ccccc1)c1ccccc1)NCC1CC1` [Compound 2o, 2-(Benzhydrylthio)-N-(cyclopropylmethyl)acetamide]: the figures for the Ki in [7], in series [3] (setting [13]) and in series [4] (setting [14]) were 20900 nM, more than 100000 nM and 13900 nM, respectively.
For the compound `O=C(CSC(c1ccc(F)cc1)c1ccc(F)cc1)NCC1CC1` [Compound 2p, 2-((Bis(4-fluorophenyl)methyl)thio)-N-(cyclopropylmethyl)acetamide], the Ki in series [7] came to 35400 nM; in series [3] (setting [13]) it was 57600 nM; in series [4] (setting [14]), 6860 nM.
In the same order, the values of `O=C(CSC(c1ccc(Br)cc1)c1ccc(Br)cc1)NCC1CC1` [Compound 2q, 2-((Bis(4-bromophenyl)methyl)thio)-N-(cyclopropylmethyl)acetamide] are 7270 nM, more than 100000 nM and 993 ± 139 nM.
On the same counts, the results for `Cc1ccc(C(c2ccc(C)cc2)[S+]([O-])CC(N)=O)cc1` (stereo not shown) [Compound 3a, 2-((Di-p-tolylmethyl)sulfinyl)acetamide] are more than 100000 nM, more than 100000 nM and 12700 nM.
Turning to `NC(=O)C[S+]([O-])C(c1cccc(F)c1)c1cccc(F)c1` (stereo not shown) [Compound 3c, 2-((Bis(3-fluorophenyl)methyl)sulfinyl)acetamide], the Ki is more than 100000 nM in series [7], more than 100000 nM in [3] (setting [13]) and 6180 nM in series [4] (setting [14]).
Regarding `NC(=O)C[S+]([O-])C(c1cccc(Cl)c1)c1cccc(Cl)c1` (stereo not shown) [Compound 3d, 2-((Bis(3-chlorophenyl)methyl)sulfinyl)acetamide], the Ki in [7] and in series [3] (setting [13]) was more than 100000 nM throughout.
For `NC(=O)C[S+]([O-])C(c1ccccc1)c1cccc(Br)c1` (stereo not shown) [Compound 3e, 2-(((3-Bromophenyl)(phenyl)methyl)sulfinyl)acetamide], the Ki in series [7] was more than 100000 nM; in series [3] (setting [13]), more than 100000 nM; in series [4] (setting [14]), 550 ± 7.4 nM.
`NCCSC(c1ccc(Cl)cc1)c1ccc(Cl)cc1` [Compound 4b, 2-((bis(4-chlorophenyl)methyl)thio)ethan-1-amine]: the Ki in [2] (setting [15]) was 30 nM and 29.9 nM; in series [7] it was less than 30 nM.
Turning to `NCCSC(c1ccc(Br)cc1)c1ccc(Br)cc1` [Compound 4c, 2-((bis(4-bromophenyl)methyl)thio)ethan-1-amine], the “increase in SERT affinity, halogen-substituted v. unsubstituted analogue” value in series [2] (2i v. 2g (Table 1), 4c v. 4a (Table 2)) amounted to 9 fold. Besides, the Ki in series [2] (setting [15]) is 26 nM and 26.3 nM; in series [7], less than 30 nM; in [4] (read-out: Ki (nM) ± S.E.M. DAT) it was 488 ± 52.2 nM. For the same compound, in series [4], the “improvement in DAT affinity, halogen-substituted v. unsubstituted analogue” value is on record as 3 fold.
As to `c1ccc(CCCN2CCN(CCSC(c3ccccc3)c3ccccc3)CC2)cc1` [Compound 7a, 1-(2-(Benzhydrylthio)ethyl)-4-(3-phenylpropyl)piperazine], the Ki in series [1] is 19.9 ± 2.59 nM; in series [2] (setting [10]), 1050 ± 152 nM; in series [3] (setting [11]) it was 988 nM; in [4] (setting [12]) it was 3.58 ± 0.16 nM; in series [5], 16.8 ± 2.15 nM.
As to `Fc1ccc(C(SCCN2CCN(CCCc3ccccc3)CC2)c2ccc(F)cc2)cc1` [Compound 7b, 1-(2-((Bis(4-fluorophenyl)methyl)thio)ethyl)-4-(3-phenylpropyl)piperazine], the Ki in series [1] came to 59.5 ± 5.04 nM; in series [2] (setting [10]), 285 nM; in series [3] (setting [11]), 1890 ± 116 nM; in series [4] (setting [12]), 4.5 ± 0.34 nM; in series [5] it was 28.5 ± 2.14 nM.
Consider `[O-][S+](CCN1CCN(CCCc2ccccc2)CC1)C(c1ccccc1)c1ccccc1` (stereo not shown) [Compound 8a, 1-(2-(Benzhydrylsulfinyl)ethyl)-4-(3-phenylpropyl)piperazine], for which the Ki in series [1] was determined as 116 ± 1.24 nM; in series [2] (setting [10]), 7220 ± 944 nM; in series [3] (setting [11]) it was 5540 ± 808 nM; in series [4] (read-out: DAT Ki ± SEM) it was 3.17 ± 0.11 nM; in [5] it was 20.5 ± 0.43 nM.
Regarding `CCN(CC)CCOC(=O)c1ccc(N)cc1` [Procaine, reference compound], the “Metabolic stability, Plasma (% remaining)” value in [8] came to 100%.
For the compound `C[C@]12CC[C@H]3[C@@H](CCC4=CC(=O)CC[C@@]43C)[C@@H]1CC[C@@H]2O` [Testosterone, reference compound], the results for the “Metabolic stability, Phase I (% remaining)” value in series [9] (0 min) and in series [9] (60 min) were 100% and 0%, respectively.

Values taken from US9862679B2, “Potent and selective inhibitors of monoamine transporters; method of making; and use thereof” (priority 2013, dated 2018).
